In patent US9221822B2, “Thiazolopyrimidine modulators as immunosuppressive agents” (Katholieke Universiteit Leuven, K.U.Leuven R&D, priority 2009, dated 2015) one finds IC50 data, which are given here for 14 compounds.

The assay deals with Human peripheral blood mononuclear cells (PBMCs) as Responder cells, RPMI 1788 Stimulator cells. Briefly: Mixed Lymphocyte Reaction (MLR) test. The note with it: Homo sapiens, RPMI-1788, lowest concentration giving 50% inhibition of the MLR; 6 days coculture, 3H-thymidine incorporation. The class given is cell-based. As to the method:
Human peripheral blood mononuclear cells (PBMCs) were isolated from buffy coats, obtained from healthy blood donors by Ficoll (Lymphoprep, Axis-Shield PoC AS, Oslo, Norway) density-gradient centrifugation. The cells at the Ficoll-plasma interface were washed three times and used as “Responder” cells. RPMI 1788 (ATCC, N^o CCL-156) cells were treated with mitomycin C (Kyowa, Nycomed, Brussel, Belgium) and used as “Stimulator” cells. Responder cells (0.12×10^6), Stimulator cells (0.045×10^6) and compounds (in different concentrations) were cocultured for 6 days in RPMI 1640 medium (BioWhittaker, Lonza, Belgium) supplemented with 10% fetal calf serum, 100 U/ml Geneticin (Gibco, LifeTechnologies, UK). Cells were cultured in triplicate in flat-bottomed 96-well microtiter tissue culture plates (TTP, Switzerland). After 5 days, cells were pulsed with 1 μCi of methyl-^3H thymidine (MP Biomedicals, USA), harvested 18 h later on glass filter paper and counted. Proliferation values were expressed as counts per minute (cpm), and converted to % inhibition with respect to a blank MLR test (identical but without added compound). […]
Background: Dividing cells build labelled thymidine or BrdU into new DNA.
The term IC50 denotes the concentration that inhibits the measured activity by half. A lower IC50 goes with inhibition by little substance. As for `COCc1nc2c(N3CCN(C(=O)COc4ccc(Cl)cc4)CC3)nc(N)nc2o1` [Example 186, 5-amino-7-[4-(4-chlorophenoxyacetyl)piperazin-1-yl]-2-methoxylmethyloxazolo[5,4-d]pyrimidine], the IC50 is 1.83 µM.
`Nc1nc(N2CCN(C(=O)COc3ccc(Cl)cc3)CC2)c2nc(C3CCCCC3)oc2n1` [Example 187, 5-amino-2-cyclohexyl-7-[4-(4-chlorophenoxyacetyl)piperazin-1-yl]oxazolo[5,4-d]pyrimidine] yielded a half-inhibitory concentration (IC50) greater than 10 µM.
The result for `CCCCCc1nc2c(N3CCN(C(=O)COc4ccc(Cl)cc4)CC3)nc(N)nc2o1` [Example 188, 5-amino-7-[4-(4-chlorophenoxyacetyl)piperazin-1-yl]-2-pentyloxazolo[5,4-d]pyrimidine] reads 4.43 µM.
The result for `Nc1nc(N2CCN(C(=O)COc3ccc(Cl)cc3)CC2)c2nc(CCc3ccccc3)oc2n1` [Example 189, 5-amino-2-(2-phenylethyl)-7-[4-(4-chlorophenoxyacetyl)piperazin-1-yl]oxazolo[5,4-d]pyrimidine] reads 5.53 µM.
The result for `CC(=O)N1CCN(c2nc(N)nc3oc(-c4ccc(F)cc4)nc23)CC1` [Example 191, 5-amino-2-(4-fluorophenyl)-7-(4-acetylpiperazin-1-yl)-oxazolo[5,4-d]pyrimidine] reads greater than 10 µM; that for `COCCN1CCN(c2nc(N)nc3oc(-c4ccc(F)cc4)nc23)CC1` [Example 192, 5-amino-2-(4-fluorophenyl)-7-[4-(2-methoxyethyl)-piperazin-1-yl]-oxazolo[5,4-d]pyrimidine], greater than 10 µM.
`Nc1nc(N2CCN(C(=O)COc3cccc([N+](=O)[O-])c3)CC2)c2nc(-c3ccc(F)cc3)oc2n1` [Example 193, 5-amino-2-(4-fluorophenyl)-7-(4-[2-(3-nitrophenoxy)acetyl]-piperazin-1-yl)-oxazolo[5,4-d]pyrimidine] gave an IC50 of 0.7 µM.
The result for `Nc1nc(N2CCN(C(=O)Cc3ccc(Cl)cc3)CC2)c2nc(CCc3ccc(F)cc3)oc2n1` [Example 194, 5-amino-2-[2-(4-fluorophenyl)ethyl]-7-(4-[2-(4-chlorophenyl)acetyl]-piperazin-1-yl)-oxazolo[5,4-d]pyrimidine] reads 9.04 µM; that for `Nc1nc(N2CCN(C(=O)c3ccc(Cl)cc3)CC2)c2nc(CCc3ccc(F)cc3)oc2n1` [Example 195, 5-amino-2-[2-(4-fluorophenyl)ethyl]-7-(4-[4-chlorobenzoyl]piperazin-1-yl)-oxazolo[5,4-d]pyrimidine], greater than 10 µM; that for `Cc1cccc(NC(=O)N2CCN(c3nc(N)nc4oc(CCc5ccc(F)cc5)nc34)CC2)c1` [Example 196, 5-amino-2-[2-(4-fluorophenyl)ethyl]-7-(4-m-tolylcarbamoylpiperazin-1-yl)-oxazolo[5,4-d]pyrimidine], 3.97 µM.
Take `Nc1nc(N2CCN(CCOc3ccccc3)CC2)c2nc(CCc3ccc(F)cc3)oc2n1` [Example 197, 5-amino-2-[2-(4-fluorophenyl)ethyl]-7-(4-(2-phenoxyethyl)piperazin-1-yl)-oxazolo[5,4-d]pyrimidine]: the midpoint of inhibition, the IC50, lay at 1.95 µM.
The result for `CN(C(=O)CN1CCN(c2nc(N)nc3oc(CCc4ccc(F)cc4)nc23)CC1)c1ccccc1` [Example 198, 5-amino-2-[2-(4-fluorophenyl)ethyl]-7-(4-[(methylphenyl-carbamoyl)methyl]piperazin-1-yl)-oxazolo[5,4-d]pyrimidine] reads greater than 10 µM; that for `COc1ccc(OCC(=O)N2CCN(c3nc(N)nc4sc(-c5ccccc5)nc34)CC2)cc1` [Example 208, 1-(4-(5-amino-2-phenylthiazolo[5,4-d]pyrimidin-7-yl)piperazin-1-yl)-2-(4-methoxyphenoxy)ethanone], 0.042 µM; that for `Nc1nc(N2CCN(C(=O)COc3ccc(F)cc3)CC2)c2nc(-c3ccco3)sc2n1` [Example 209, 1-(4-(5-amino-2-(furan-2-yl)thiazolo[5,4-d]pyrimidin-7-yl)piperazin-1-yl)-2-(4-fluorophenoxy)ethanone], 0.055 µM.
